Measurements: patent US9585858B2, “Pharmaceutical composition containing 13 triglycerides, and preparations and use thereof” (ZHEJIANG KANGLAITE GROUP CO., LTD., priority 2014, dated 2017)

Tests used:
[1] = tested on: Splenocytes; experiment: Splenic lymphopoiesis induced by ConA in mice in vitro (3H-TdR incorporation); type: cell-based, C57BL/6 mice
Procedure: Spleens were picked up from C57BL/6 mice in aseptic condition. Splenocytes were separated and the concentration of cells was adjusted to 1×10^7 cells/ml with RPMI 1640+15% FCS medium. The experiment groups were as follows: the injection of the invention in four concentrations, lentinan (positive control group) in four concentrations, corresponding solvent (blank control I) and medium (blank control II). 100 μl Cells, 100 μl solution of drug/control and 50 μl ConA were added in each well in triplicate. The 96 well microplate was incubated in a 37° C. incubator under 5% CO2 for 48 h. ^3H-TdR (0.5 μci/well) was added and the incubation was continued for 20 h. Cells were collected, and CPM values were determined in a liquid scintillation counter and compared with control groups. It is shown in the results (table 3) that the injection of the invention, as same as lentinan, has obviously facilitated the splenic lymphopoiesis in mice in vitro and the effect is linear dependent to the concentration.

[2] = tested on: mice bearing L1210 leukemia cells; experiment: Splenic lymphopoiesis in mice bearing L1210 leukemia cells; type: in vivo, DBA/2 mice; details: 20 mg/kg, iv × 7
Procedure: Each of 60 DBA/2 mice was inoculated subcutaneously with 1×10^4 L1210 leukemia cells of mice. Next day, the mice were grouped randomly into 6 groups (10 mice per group): Lentinan 20 mg/kg, the injection of the invention (6.25 ml/kg, 12.5 ml/kg and 25 ml/kg), solvent control and NS control. Animals were administered, i.v., for 7 days, then sacrificed. Spleens were picked up in aseptic condition. Splenocytes were counted and adjusted into 1×10^7/ml. Cells (100 μl/well) and medium (100 μl/well) were added into wells of a 96 well microplate in triplicate. The 96 well microplate was incubated in a 37° C. incubator under 5% CO2 for 48 h. Then, ^3H-TdR (0.5 μci/well) was added and the incubation was continued for 20 h. Cells were collected, and CPM values were determined and compared with control groups. […] Lentinan has also shown immuno-enhancement effect.

[3] = tested on: IL-2; experiment: Production of IL-2 in mice suffering from L1210 leukemia (CTLL cell 3H-TdR incorporation); type: in vivo, DBA/2 mice; details: 20 mg/kg, iv × 7
Procedure: Each of 60 DBA/2 mice was inoculated subcutaneously with 1×10^4 L1210 leukemia cells of mice. Next day, the mice were grouped randomly into 6 groups (10 mice per group): Lentinan 20 mg/kg, the injection of the invention (6.25 ml/kg, 12.5 ml/kg and 25 ml/kg), solvent control and NS control. Animals were administered, i.v., for 7 days, then sacrificed. Spleens were picked up in aseptic condition. Splenocytes were prepared and adjusted into 1×10^7/ml. To each well of a 24 well plate were added splenocytes cells (2 ml) and Con A (5 μg/ml). After the plate was incubated in a 37° C. incubator under 5% CO2 for 24 h, the supernate was collected. The activity of IL-2 was determined in IL-2 dependent CTLL cell strain by using the method of ^3H-TdR incorporation.

[4] = tested on: NK cells; experiment: Activity of NK cells in mice bearing cancer; type: in vivo, DBA/2 mice; details: 20 mg/kg, iv × 7
Procedure: Each of 60 DBA/2 mice was inoculated subcutaneously with 1×10^4 L1210 leukemia cells of mice. Next day, the mice were grouped randomly into 6 groups (10 mice per group): Lentinan 20 mg/kg, the injection of the invention (6.25 ml/kg, 12.5 ml/kg and 25 ml/kg), solvent control and NS control. Animals were administered, i.v., for 7 days, then sacrificed. Spleens were picked up in aseptic condition. Splenocytes were prepared and adjusted into 1×10^6/ml. The activity of NK cells was detected by using the inhibition on ^3H-TdR incorporation. To wells of a 96 well microplate were added splenocytes cells (effector cells) 100 μl/well, YAC-1 cells (target cells, 1×10^4 cells/ml) 100 μl/well and ^3H-TdR 0.5 μci/well, in triplicate. After being incubated in a 37° C. incubator under 5% CO2 for 24 h, cells were collected, and CPM values were determined. The specific percentage inhibition (Pi), indicating the activity of NK cells, was calculated according to the above formula.

[5] = tested on: NK cells; experiment: Activity of NK cells in mice in vitro (inhibition of 3H-TdR incorporation, YAC-1 target cells); type: cell-based, C57BL/6 mice; details: for CPM (x ± SD), activity of NK cells in mice in vitro: splenocytes:YAC-1 100:1, 24 h
Procedure: Method: The activity of NK cells were detected by the inhibition on ^3H-TdR incorporation.
Spleens were picked up from C57BL/6 mice in aseptic condition. Splenocytes, as effector cells, were adjusted to 1×10^6 cells/ml. YAC-1 cells, target cells, which have been cultured for 24 h, were adjusted to 1×10^4 cells/ml. The cells were added into wells of a 96 well microplate (100 μl/well). The experiment groups were as follows: the injection of the invention in four concentrations, lentinan (positive control group) in four concentrations, corresponding solvent (blank control I) and medium (blank control II). To each well of a 96 well microplate were added Splenocytes: YAC-1 cells=100: 1 (100 μl), test sample (100 μl) and ^3H-TdR 0.5 μci/well. After being incubated in a 37° C. incubator under 5% CO2 for 24 h, cells were collected, and CPM values were determined. The specific percentage inhibition (Pi), indicating the activity of NK cells, was calculated according to the formula: Pi=(1−CPMExp./CPMcont.)×100%

## Lentinan
[1]; 100 μl (1:1)
  CPM (x ± SD), splenic lymphopoiesis in mice in vitro: 7700 ± 747 CPM
[1]; 100 μl (1:2)
  CPM (x ± SD), splenic lymphopoiesis in mice in vitro: 11025 ± 1133 CPM
[1]; 100 μl (1:4)
  CPM (x ± SD), splenic lymphopoiesis in mice in vitro: 11555 ± 1279 CPM
[1]; 100 μl (stock solution)
  CPM (x ± SD), splenic lymphopoiesis in mice in vitro: 7420 ± 957 CPM
[2]
  CPM (x ± SD), splenic lymphopoiesis in mice bearing L1210 leukemia cells: 7410 ± 770 CPM
[3]
  CPM (x ± SD), production of IL-2 in mice suffering from L1210 leukemia: 2750 ± 123 CPM
[4]
  CPM (x ± SD), activity of NK cells in mice bearing cancer: 5660 ± 260 CPM
  Pi (%), activity of NK cells in mice bearing cancer: 54.5%
[5]; 100 μl (1:1)
  Pi % (specific percentage inhibition, activity of NK cells) in vitro: 33.5%
  CPM (x ± SD), activity of NK cells in mice in vitro: 8130 ± 930 CPM
[5]; 100 μl (1:2)
  Pi % (specific percentage inhibition, activity of NK cells) in vitro: 35.5%
  CPM (x ± SD), activity of NK cells in mice in vitro: 7892 ± 995 CPM
[5]; 100 μl (1:4)
  Pi % (specific percentage inhibition, activity of NK cells) in vitro: 54.5%
  CPM (x ± SD), activity of NK cells in mice in vitro: 5544 ± 85 CPM
[5]; 100 μl (stock solution)
  Pi % (specific percentage inhibition, activity of NK cells) in vitro: 29.5%
  CPM (x ± SD), activity of NK cells in mice in vitro: 8625 ± 1135 CPM
